Measurements reported in US20230167103A1 (Bayer Aktiengesellschaft, priority 2020, published 2023).

Target: T1, human DGKζ (Homo sapiens, UniProt Q13574)
T1 construct: made in house; host or cells: Sf9 insect cells, baculovirus
Assay: Human DGKζ kinase activity inhibition assay (ADP-Glo)
Format: biochemical
Details: example compounds; recombinant full-length human DGKζ, 1,2-dioleoyl-sn-glycerol 7 μM, ATP 55 μM, 20 min at 22° C.; read-out: IC50 values of examples in in vitro human DGKζ kinase activity inhibition assays
Experimental: Human diacylglycerol kinase zeta (DGKζ) inhibitory activity of compounds of the present invention was quantified employing the human DGKζ kinase activity assay as described in the following paragraphs. In essence, the enzyme activity was measured by quantification of the adenosine-di-phosphate (ADP) generated as a co-product of the enzyme reaction via the “ADP-Glo™ Kinase Assay” kit from the company Promega. This detection system works as follows: In a first step the adenosine-tri-phosphate (ATP) not consumed in the kinase reaction is quantitatively converted to cyclic adenosine-mono-phosphate (cAMP) employing an adenylate cyclase (“ADP-Glo-reagent”), then the adenylate cyclase is stopped and the ADP generated in the kinase reaction is converted to ATP, which subsequently generates in a luciferase-based reaction a glow-luminescence signal (“Kinase Detection Reagent”).
C-terminally FLAG-tagged, recombinant full-length human DGKζ (inhouse expressed in baculovirus infected insect cells, purified using anti-Flag pulldown and size exclusion chromatography) was used as enzyme. As an alternative, commercially available enzyme by Carnabio can be used. As substrate for the kinase, 1,2-dioleoyl-sn-glycerol, reconstituted in octyl-β-D-glucopyranoside micelles, was used. […] Subsequently, 22.55 volumes of a 510 mM solution of octyl-β-D-glucopyranoside (Sigma-Aldrich, Cat. #O8001-10G) in 50 mM MOPS buffer (pH 7.4) were added, and the mixture was sonicated in an ultrasonic bath for 20 s. Then 35 volumes of 50 mM MOPS buffer (pH 7.4) were added to yield a solution of 0.28 mM 1,2 dioleoyl-sn-glycerol and 200 mM octyl-β-D-glucopyranoside, which was aliquoted, flash-frozen in liquid nitrogen, and stored at −20° C. until use.
For the assay 50 nl of a 100-fold concentrated solution of the test compound in dimethyl sulfoxide (DMSO, Sigma) was pipetted into either a white 1536-well or a white low-volume 384-well microtiter plate (both Greiner Bio-One, Frickenhausen, Germany). […] The concentration of DGKζ was adjusted depending of the activity of the enzyme lot and was chosen appropriate to have the assay in the linear range, a typical concentration is about 0.1 nM. The reaction was stopped by the addition of 2.5 μL of “ADP-Glo-reagent” (1 to 1.5 diluted with water) and the resulting mixture was incubated at 22° C. for 1 h to convert the ATP not consumed in the kinase reaction completely to cAMP. Subsequently 2.5 μl of the “kinase detection reagent” (1.2 fold more concentrated than recommended by the producer) were added, the resulting mixture was incubated at 22° C. for 1 h and then the luminescence measured with a suitable measurement instrument (e.g. Viewlux™ from Perkin-Elmer). The amount of emitted light was taken as a measure for the amount of ADP generated and thereby for the activity of the DGKζ.
The data were normalised (enzyme reaction without inhibitor=0% inhibition, all other assay components but no enzyme=100% inhibition).

T1 sequence (Q13574 with tags, fused parts or gaps): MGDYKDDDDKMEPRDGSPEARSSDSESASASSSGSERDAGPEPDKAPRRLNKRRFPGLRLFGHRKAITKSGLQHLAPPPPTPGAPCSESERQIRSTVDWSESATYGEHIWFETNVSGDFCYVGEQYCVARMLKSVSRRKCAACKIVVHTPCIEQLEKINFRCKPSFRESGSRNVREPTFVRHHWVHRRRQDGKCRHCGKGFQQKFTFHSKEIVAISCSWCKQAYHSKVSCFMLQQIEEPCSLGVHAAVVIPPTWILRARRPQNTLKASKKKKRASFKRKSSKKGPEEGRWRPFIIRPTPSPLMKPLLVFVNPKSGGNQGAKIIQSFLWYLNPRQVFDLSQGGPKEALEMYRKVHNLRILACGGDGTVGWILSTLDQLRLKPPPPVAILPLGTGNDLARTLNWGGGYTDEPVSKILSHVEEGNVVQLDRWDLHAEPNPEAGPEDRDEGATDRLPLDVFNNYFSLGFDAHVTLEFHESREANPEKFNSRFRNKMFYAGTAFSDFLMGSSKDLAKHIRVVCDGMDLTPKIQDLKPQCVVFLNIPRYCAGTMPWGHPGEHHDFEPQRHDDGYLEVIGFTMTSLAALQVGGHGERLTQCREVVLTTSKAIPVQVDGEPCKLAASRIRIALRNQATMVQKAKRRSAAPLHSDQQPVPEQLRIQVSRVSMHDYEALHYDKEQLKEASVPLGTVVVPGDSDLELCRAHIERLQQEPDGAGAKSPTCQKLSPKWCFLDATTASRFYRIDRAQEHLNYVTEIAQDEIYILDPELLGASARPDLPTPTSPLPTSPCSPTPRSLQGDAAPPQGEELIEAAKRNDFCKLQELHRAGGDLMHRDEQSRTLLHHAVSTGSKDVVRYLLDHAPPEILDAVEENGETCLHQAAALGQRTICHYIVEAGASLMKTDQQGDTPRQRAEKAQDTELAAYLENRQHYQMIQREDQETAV

Row | SMILES | IC50 [nM]
1 | CC(C(N)=O)N(c1ccc(F)cc1)c1nc(N)c(C(=O)c2cc(CN3CCC(F)(F)C(C)C3)no2)s1 (mixture of isomers) [Example 76, 2-(N-[4-amino-5-[3-[(4,4-difluoro-3-methyl-1-piperidyl)methyl]isoxazole-5-carbonyl]thiazol-2-yl]-4-fluoro-anilino)propanamide] | 10
2 | CC(C(N)=O)N(c1ccc(F)cc1)c1nc(N)c(C(=O)c2cc(CN3CCC(F)C3)no2)s1 (mixture of isomers) [Example 77, 2-(N-[4-amino-5-[3-[(3-fluoropyrrolidin-1-yl)methyl]isoxazole-5-carbonyl]thiazol-2-yl]-4-fluoro-anilino)propanamide] | 242
3 | CC(C(N)=O)N(c1ccc(F)cc1)c1nc(N)c(C(=O)c2nc(-c3ccc(Cl)cc3)no2)s1 (racemic) [Example 1, rac-2-(N-[4-amino-5-[3-(4-chlorophenyl)-1,2,4-oxadiazole-5-carbonyl]thiazol-2-yl]-4-fluoro-anilino)propanamide] | 9
4 | CC(C(N)=O)N(c1ccc(F)cc1)c1nc(N)c(C(=O)c2cc(OCc3ccccc3)no2)s1 (racemic) [Example 2, rac-2-(N-[4-amino-5-(3-benzyloxyisoxazole-5-carbonyl)thiazol-2-yl]-4-fluoro-anilino)propanamide] | 27
5 | CC(C(N)=O)N(c1ccc(F)cc1)c1nc(N)c(C(=O)c2cc(-c3ccccc3)no2)s1 (racemic) [Example 3, rac-2-(N-[4-amino-5-(3-phenylisoxazole-5-carbonyl)thiazol-2-yl]-4-fluoro-anilino)propanamide] | 104
6 | CC(C(N)=O)N(c1ccc(F)cc1)c1nc(N)c(C(=O)c2cc(-c3ccc(Cl)cc3Cl)no2)s1 (racemic) [Example 4, rac-2-(N-[4-amino-5-[3-(2,4-dichlorophenyl)isoxazole-5-carbonyl]thiazol-2-yl]-4-fluoro-anilino)propanamide] | 37
7 | CC(C(N)=O)N(c1ccc(F)cc1)c1nc(N)c(C(=O)c2cc(-c3ccc(Cl)cc3)no2)s1 (racemic) [Example 5, rac-2-(N-[4-amino-5-[3-(4-chlorophenyl)isoxazole-5-carbonyl]thiazol-2-yl]-4-fluoro-anilino)propanamide] | 67
8 | CC(C(N)=O)N(c1ccc(F)cc1)c1nc(N)c(C(=O)c2cc(Br)no2)s1 (racemic) [Example 6, rac-2-(N-[4-amino-5-(3-bromoisoxazole-5-carbonyl)thiazol-2-yl]-4-fluoro-anilino)propanamide] | 123
9 | CC(C(N)=O)N(c1ccc(F)cc1)c1nc(N)c(C(=O)c2cc(-c3cccnc3)no2)s1 (racemic) [Example 7, rac-2-(N-[4-amino-5-[3-(3-pyridyl)isoxazole-5-carbonyl]thiazol-2-yl]-4-fluoro-anilino)propanamide] | 407
10 | CC(C(N)=O)N(c1ccc(F)cc1)c1nc(N)c(C(=O)c2cc(-c3ccncc3)no2)s1 (racemic) [Example 8, rac-2-(N-[4-amino-5-[3-(4-pyridyl)isoxazole-5-carbonyl]thiazol-2-yl]-4-fluoro-anilino)propanamide] | 728
11 | CCOC(=O)c1cc(C(=O)c2sc(N(c3ccc(F)cc3)C(C)C(N)=O)nc2N)on1 (racemic) [Example 9, rac-Ethyl 5-[4-amino-2-(N-(2-amino-1-methyl-2-oxo-ethyl)-4-fluoro-anilino)thiazole-5-carbonyl]isoxazole-3-carboxylate] | 189
12 | CC(C(N)=O)N(c1ccc(F)cc1)c1nc(N)c(C(=O)c2cc(C(=O)Nc3ccccc3)no2)s1 (racemic) [Example 10, rac-5-[4-amino-2-(N-(2-amino-1-methyl-2-oxo-ethyl)-4-fluoro-anilino)thiazole-5-carbonyl]-N-phenyl-isoxazole-3-carboxamide] | 23
13 | CC(C(N)=O)N(c1ccc(F)cc1)c1nc(N)c(C(=O)c2cc(C(=O)N[C@@H]3C[C@@H]3F)no2)s1 (mixture of isomers) [Example 11, 5-[4-amino-2-(N-(2-amino-1-methyl-2-oxo-ethyl)-4-fluoro-anilino)thiazole-5-carbonyl]-N-[(cis)-2-fluorocyclopropyl]isoxazole-3-carboxamide] | 2360
14 | CC(C(N)=O)N(c1ccc(F)cc1)c1nc(N)c(C(=O)c2cc(C(=O)Nc3cnn(C)c3)no2)s1 (racemic) [Example 12, rac-5-[4-amino-2-(N-(2-amino-1-methyl-2-oxo-ethyl)-4-fluoro-anilino)thiazole-5-carbonyl]-N-(1-methylpyrazol-4-yl)isoxazole-3-carboxamide] | 938
15 | CC(C(N)=O)N(c1ccc(F)cc1)c1nc(N)c(C(=O)c2cc(C(=O)N3CCOCC3)no2)s1 (racemic) [Example 13, rac-2-(N-[4-amino-5-[3-(morpholine-4-carbonyl)isoxazole-5-carbonyl]thiazol-2-yl]-4-fluoro-anilino)propanamide] | 977
16 | CC(C(N)=O)N(c1ccc(F)cc1)c1nc(N)c(C(=O)c2cc(C(=O)NC3CC3)no2)s1 (racemic) [Example 15, rac-5-[4-amino-2-(N-(2-amino-1-methyl-2-oxo-ethyl)-4-fluoro-anilino)thiazole-5-carbonyl]-N-cyclopropyl-isoxazole-3-carboxamide] | 565
17 | CC(C(N)=O)N(c1ccc(F)cc1)c1nc(N)c(C(=O)c2cc(C(=O)Nc3ccncc3)no2)s1 (racemic) [Example 16, rac-5-[4-amino-2-(N-(2-amino-1-methyl-2-oxo-ethyl)-4-fluoro-anilino)thiazole-5-carbonyl]-N-(4-pyridyl)isoxazole-3-carboxamide] | 420
18 | CC(C(N)=O)N(c1ccc(F)cc1)c1nc(N)c(C(=O)c2cc(C(=O)NCC(F)F)no2)s1 (racemic) [Example 17, rac-5-[4-amino-2-(N-(2-amino-1-methyl-2-oxo-ethyl)-4-fluoro-anilino)thiazole-5-carbonyl]-N-(2,2-difluoroethyl)isoxazole-3-carboxamide] | 699
19 | CC(C(N)=O)N(c1ccc(F)cc1)c1nc(N)c(C(=O)c2cc(C(=O)N3CCC3)no2)s1 (racemic) [Example 18, rac-2-(N-[4-amino-5-[3-(azetidine-1-carbonyl)isoxazole-5-carbonyl]thiazol-2-yl]-4-fluoro-anilino)propanamide] | 492
20 | CC(C(N)=O)N(c1ccc(F)cc1)c1nc(N)c(C(=O)c2cc(C(=O)N3CCCC3)no2)s1 (racemic) [Example 19, rac-2-(N-[4-amino-5-[3-(pyrrolidine-1-carbonyl)isoxazole-5-carbonyl]thiazol-2-yl]-4-fluoro-anilino)propanamide] | 315
21 | CC(C(N)=O)N(c1ccc(F)cc1)c1nc(N)c(C(=O)c2cc(C(=O)Nc3cccnc3)no2)s1 (racemic) [Example 20, rac-5-[4-amino-2-(N-(2-amino-1-methyl-2-oxo-ethyl)-4-fluoro-anilino)thiazole-5-carbonyl]-N-(3-pyridyl)isoxazole-3-carboxamide] | 300
22 | CC(C(N)=O)N(c1ccc(F)cc1)c1nc(N)c(C(=O)c2cc(C(=O)NC3CCC3)no2)s1 (racemic) [Example 21, rac-5-[4-amino-2-(N-(2-amino-1-methyl-2-oxo-ethyl)-4-fluoro-anilino)thiazole-5-carbonyl]-N-cyclobutyl-isoxazole-3-carboxamide] | 293
